# According to patent publication US20250354185A1, “BLUE PIGMENT AND BIOSYNTHESIS METHOD THEREOF” (VERTEXYN BIOWORKS CO., LTD., priority 2024, published 2025):
# Assays:
# Format in all cases: physicochemical
# [1] = Ultraviolet-visible absorption spectrum of HPLC product peaks; details: HPLC peaks of experimental group 5 (8.8 min indigoidine, 9.9 min N-acetyl-indigoidine)
# Experimental: Wavelength: 600 nm. Flow rate: 1.0 mL/min. Sample solvent: DMSO. Injection volume: 10 μL. Column temperature: 35° C. Running time: 18 min.
# Experimental group 5:50 mL of a fermentation broth of the strain HG-N-Idg01 cultured according to the method in Example 2 was collected and centrifuged to produce a cell pellet. The cell pellet was resuspended with 10 mL of a catalytic solution (including 1 g/L of glutaminc, 1 g/L of N-acetylglutamine, and 50 mM of a phosphate buffer), and a reaction was allowed at 25° C. and 220 rpm for 6 h. 100 μL of a sample was collected and tested by HPLC.
# FIG. 2A and FIG. 2B show the wavelengths corresponding to the maximum absorption peaks of the experimental group 5.
# [2] = Comparison of colors of solutions in water (ddH2O); details: 1 mg dissolved with 10 mL of ddH2O; visual observation
# Experimental: 1 mg of an indigoidine standard was weighed and dissolved with 10 mL of ddH2O to produce a solution of indigoidine in ddH2O. 1 mg of N-acetyl-indigoidine purified in Example 4 was weighed and dissolved with 10 mL of ddH2O to produce a solution of N-acetyl-indigoidine in ddH2O. A color difference between the solution of indigoidine in ddH2O and the solution of N-acetyl-indigoidine in ddH2O was observed, and results were shown in FIG. 17A and FIG. 17B. […] It can be seen that N-acetyl-indigoidine has a more authentic color than indigoidine.
# [3] = Comparison of colors of solutions in DMSO; details: 1 mg dissolved with 10 mL of DMSO; visual observation
# Experimental: 1 mg of an indigoidine standard was weighed and dissolved with 10 mL of DMSO to produce a solution of indigoidine in DMSO. 1 mg of N-acetyl-indigoidine purified in Example 4 was weighed and dissolved with 10 mL of DMSO to produce a solution of N-acetyl-indigoidine in DMSO. A color difference between the solution of indigoidine in DMSO and the solution of N-acetyl-indigoidine in DMSO was observed, and results were shown in FIG. 16A and FIG. 16B. […] The solution of N-acetyl-indigoidine in DMSO has a more vibrant and brighter color than the solution of indigoidine in DMSO.
wavelength corresponding to the maximum absorption peak [1] [nm],color of the solution in ddH2O [2],color of the solution in DMSO [3],Compound
584,blue,bright-blue,CC(=O)NC1=C/C(=C2/C=C(N)C(=O)NC2=O)C(=O)NC1=O [N-acetyl-indigoidine]
600,purple-blue,blue,Indigoidine
